Measured values as given in patent publication US5078986A, “Method for enhancing magnetic resonance imaging using an image altering agent containing an excess of chelating agent” (Mallinckrodt Medical, Inc., priority 1990, dated 1992).
“Also recorded” adds a separate entry of the source. Read-outs that look alike come from different tables or passages of the source.

Key:
mice [1] = test: Acute intravenous toxicity in mice (Example 7); type: in vivo, Swiss CF-1 albino mouse
Excerpt: The acute intravenous toxicity of disodium (diethylenetriaminepentaacetato)gadolinium (III) (composition C of Example 1) was studied.
A total of 16 Swiss CF-1 albino mice (8 male, 22.0-25.6 g; 8 female, 18.2-24.1 g) were used. Picric acid markings were used for individual identification.
The protocol of Example 4 was used. Groups of 2-4 mice, with sexes equally represented, received single intravenous doses of the test substance according to the following schedule: […]

[2] = test system: normal and infarcted myocardial tissue, blood; test: Proton T1 values of myocardium and blood in dogs with coronary occlusion (Example 10); type: in vivo, dog; settings: for Blood T1: before 510
[3] = test system: tissue and blood protons of rabbits; test: Tissue and blood proton T1 and T2 values in rabbits (Example 9); type: in vivo, rabbit; settings: 0.51 mmol/kg i.v., 15 min
Protocol: The EKG was recorded with surface electrodes.

[4] = test system: renal medulla and renal cortex; test: Abdominal NMR imaging in rabbits (Example 11); type: in vivo, rabbit; settings: 0.3 ml/kg (0.5 mmol Gd(III)/kg) i.v.
Protocol: Two rabbits were anesthetized and abdominal NMR images were obtained in the General Electric NMR scanner. Rabbits then received intravenous doses of 0.3 ml/kg (0.5 mmol Gd(III)/kg) of the preparation of composition D of Example 1 (GdNa2 DTPA) and additional abdominal NMR images were made over a period of two hours after dosing.

[5] = test system: excised hearts (normal and infarcted tissues); test: NMR imaging of excised hearts of dogs with coronary occlusion (Example 10); type: in vivo, dog; settings: 2 ml/kg (0.34 mmol Gd(III)/kg), 10 min
Protocol: Selective catheterization of the left anterior descending coronary artery or circumflex coronary artery was achieved via a percutaneous intracarotid artery approach in anesthetized dogs. Gelfoam plugs were inserted into the coronary artery, via the catheter, in order to produce coronary occlusion. Animals were treated with lidocaine to prevent coronary arrhythmias and morphine to relieve pain.

[6] = Biodistribution of 54Mn radioactivity in rats (Example 5); type: in vivo, Sprague-Dawley rat
Excerpt: A total of forty Sprague-Dawley rats (20 male, 217-295 g; 20 female, 151-208 g; Charles River) were used. Drinking water was provided ad libitum. The animals, 2 males and 2 females per group, were selected randomly from their cages and were identified with indelible ink numbers at tail bases before test substance administration.
Rats were divided into 10 groups consisting of 2 male and 2 female rats per group. […] Immediately after dosing, rats were housed in individual metabolism cages. Ground Purina Laboratory Chow and water were supplied ad libitum to animals sacrificed at 24 and 48 hr after treatment. Rats from both ^54 NmNa2 EDTA and ^54 Mn-L treatment groups were sacrificed by cervical dislocation at 0.5, 2, 4, 24 and 48 hr after treatment, and the following samples were obtained: injection site, blood, liver, lung, spleen, heart, kidneys, salivary gland (submaxillary), brain, bone with marrow, muscle and fat. Urine samples were obtained from animals sacrificed at all intervals of 2 hr or more after injection and fecal samples were obtained from animals sacrificed at 24 and 48 hr after treatment. […] The entire organ weights were determined for the remaining tissues.
Levels of radioactivity in the biological specimens and aliquots of the injected test substances were determined using a gamma scintillation spectrometer (Model 1085, Nuclear Chicago Corp., Des Plaines, Ill.). Results were calculated on a percent dose/organ (or fluid) and a percent dose/g (or ml) basis using an HP-85 desk top computer (Hewlett Packard, Fort Collins, Colo.).
Kinetic data for the elimination of radioactivity from liver, spleen, kidneys, heart and bone with marrow were curve fitted by the peeling and least-square methods, to mono or bi-exponential equations: [formula] Where Ct=% dose/organ in tissue at time t.
Ai=Concentration at time 0 of the line described by each first order term.
Ki=Elimination rate constant for each first-order term.
The half-life (t 1/2) for each elimination phase was calculated as 0.693/Ki. The square of the correlation coefficient (r^2) for each elimination phase was calculated as an indication of variability.

mice [7] = test: Acute intravenous toxicity in mice (Example 4); settings: i.v.; for Average Change in Body Wt. of Survivors: 7 days; for LD50: 7-day observation
Protocol: In addition, the cardiotoxic effects of single bolus intracoronary arterial injections of 4, 8, 16 or 32 mg MnCl2 were evaluated in the isolated perfused rabbit heart (IPRH).
The aqueous vehicle for the suspension of negatively charged liposomes consisted of 0.9% NaCl buffered with 0.003M sodium phosphate, pH 7.4. The lipid concentration was 50 μmol/ml.
A total of 60 mice, 30 males (body weight range of 20-33.5 g) and 30 females (body weight range of 19.1-29.7 g) were used. Fifty of the mice were Swiss ICR, CD-1, obtained from Charles River and ten were Swiss CF-1 obtained from Sasco (Omaha, Nebr.).
The four test substances were administered via the lateral tail vein of the mouse at a rate of 1 ml/min with the following doses given.

[8] = test system: isolated perfused rabbit heart
[9] = 32 mg, 0-15 S, only 1 heart, all others had VF

O=C([O-])CN(CCN(CC(=O)[O-])CC(=O)[O-])CCN(CC(=O)[O-])CC(=O)[O-].[Gd+3].[Na+].[Na+] [GdNa2 DTPA, disodium (diethylenetriaminepentaacetato)gadolinium (III)]
Dose up to which no deaths were observed (mice [1]; mouse, i.v.): 12000 mg/kg
Ataxia (mice [1]; mouse, in vivo): slight ataxia
Body weight (in words) (mice [1]; mouse, in vivo): slight reduction in body weight
Respiratory distress (mice [1]; mouse, in vivo): respiratory distress was observed
Time until all mice appeared normal (mice [1]; mouse, in vivo, iv): ≤ 6 h
Acute intravenous toxicity profile (in words) (mice [1]; up to 12.0 g/kg): relatively safe mouse acute intravenous toxicity profile
T1, infarcted regions of heart muscle ([2]; 0.17 mmol Gd(III)/kg i.v., 10 min): 290 ms
T1, normally perfused myocardial tissue ([2]; 0.17 mmol Gd(III)/kg i.v., 10 min, untreated 330): 180 ms
Blood T1 ([2]; 0.34 mmol Gd(III)/kg, 5 minutes): 50 ms
T1, infarcted tissue ([2]; 0.34 mmol Gd(III)/kg, 10 min): 230 ms
T1, normally perfused myocardium ([2]; 0.34 mmol Gd(III)/kg, 10 min, untreated 330): 135 ms
Blood T1 ([2]; 0.34 mmol Gd(III)/kg, 10 minutes): 100 ms
Mean tissue T1, Fat [3]: 61 ms
Mean tissue T1, Renal Medulla [3]: 130 ms
Alteration of renal proton images [4]: Marked alteration of renal medulla and renal cortex proton images
Time to peak effects [4]: ≤ 15 min
Image differences between normal and infarcted tissues [5]: marked differences between normal and infarcted tissues; also recorded: greater than that observed in hearts from dogs with infarcts who had not received a contrast enhancement agent
T1 image of blood remaining in the ventricles [5]: much different T1 image

O=C([O-])CN(CCN(CC(=O)[O-])CC(=O)[O-])CC(=O)[O-].[54Mn+2].[Na+].[Na+] [^54 MnNa2 EDTA]
Radioactivity in fat (in words) ([6]; 2 of 4 rats at 0.5, 2 and 4 hr): Unusually high levels of radioactivity
Localization of remaining radioactivity ([6]; after 48 hr): primarily localized in the bone and marrow
Urinary excretion at later time intervals ([6]; after the initial 2 hr): no additional urinary excretion of radioactivity was observed
Blood clearance at 2 hr (in words) ([6]; by 2 hr after treatment): almost completely cleared from the blood
Blood clearance (in words) ([6]; rat, i.v.): rapidly cleared from the blood
Bone and marrow half-life ([6]; rat, i.v.): > 100 h
Distribution, percent dose/organ (in words) ([6]; rat, i.v.): distributed primarily to the liver, bone with marrow, muscle and kidneys
Fraction associated with rapid first phase hepatic elimination ([6]; rat, i.v.): Approximately 92%
Fraction associated with rapid first phase renal elimination ([6]; rat, i.v.): Approximately 81%
Heart half-life, monophasic elimination ([6]; rat, i.v.): approximately 8 hr
Hepatic t 1/2, initial rapid elimination ([6]; rat, i.v.): < 1 h
Hepatic t 1/2, secondary slow elimination phase ([6]; rat, i.v.): > 17 h
Renal t 1/2, initial rapid elimination ([6]; rat, i.v.): < 1 h
Renal t 1/2, secondary slow elimination phase ([6]; rat, i.v.): > 17 h
Spleen half-life, monophasic elimination ([6]; rat, i.v.): ~ 2 hr
Dose eliminated in the urine ([6]; within 2 hr after treatment): > 50 % of the dose
Total dose excreted in the feces ([6]; within 48 hr after treatment): 31%

[Cl][Mn][Cl] [MnCl2, manganese(II)chloride]
Cumulative 7-Day Mortalities/Number Dosed (mice [7]; female, 25 mg/kg): 1/5
Average Change in Body Wt. of Survivors (mice [7]; female, 25 mg/kg): 2.7 g
Cumulative 7-Day Mortalities/Number Dosed (mice [7]; female, 31.25 mg/kg): 4/5
Average Change in Body Wt. of Survivors (mice [7]; female, 31.25 mg/kg): 3.5 g
Cumulative 7-Day Mortalities/Number Dosed (mice [7]; female, 37.5 mg/kg): 4/5
Average Change in Body Wt. of Survivors (mice [7]; female, 37.5 mg/kg): 3.6 g
Acute intravenous toxicity (in words) (mice [7]): high degree of acute toxicity
Cause of death (mice [7]): cardiac arrest the probable cause of death
Convulsions (mice [7]): Transient convulsions, of moderate severity; also recorded: convulsions the primary pharmacotoxic sign
Time of the one delayed death after dosing (mice [7]): 4 days
LD50 (mice [7]; 10080 min): 28 mg/kg
LD50 (mice [7]; listed as 1, 10080 min): 28.0 mg/kg
LD50 expressed as Mn(II) (mice [7]; mmol/kg of Mn(II), 10080 min): 0.22 mmol/kg
Cumulative 7-Day Mortalities/Number Dosed (mice [7]; male, 25 mg/kg): 3/5
Average Change in Body Wt. of Survivors (mice [7]; male, 25 mg/kg): 1.2 g
Cumulative 7-Day Mortalities/Number Dosed (mice [7]; male, 31.25 mg/kg): 2/5
Average Change in Body Wt. of Survivors (mice [7]; male, 31.25 mg/kg): 4.6 g
Cumulative 7-Day Mortalities/Number Dosed (mice [7]; male, 37.5 mg/kg): 4/5
Average Change in Body Wt. of Survivors (mice [7]; male, 37.5 mg/kg): 3.4 g
Incidence of Ventricular Fibrillation (VF) ([8]; 4 mg): 0/6
Mean % Change in Contractile Force (CF) ([8]; 4 mg, 0-15 S): -5%
Mean % Change in Heart Rate (HR) ([8]; 4 mg, 0-15 S): -2%
Mean % Change in Contractile Force (CF) ([8]; 4 mg, 15-30 S): -28%
Mean % Change in Heart Rate (HR) ([8]; 4 mg, 15-30 S): -2%
Mean % Change in Contractile Force (CF) ([8]; 4 mg, 1 min): -12%
Mean % Change in Heart Rate (HR) ([8]; 4 mg, 1 min): -4%
Mean % Change in Contractile Force (CF) ([8]; 4 mg, 2 min): +5%
Mean % Change in Heart Rate (HR) ([8]; 4 mg, 2 min): -2%
Incidence of Ventricular Fibrillation (VF) ([8]; 8 mg): 0/6
Mean % Change in Contractile Force (CF) ([8]; 8 mg, 0-15 S): -74%
Mean % Change in Heart Rate (HR) ([8]; 8 mg, 0-15 S): -8%
Mean % Change in Contractile Force (CF) ([8]; 8 mg, 15-30 S): -38%
Mean % Change in Heart Rate (HR) ([8]; 8 mg, 15-30 S): -7%
Mean % Change in Contractile Force (CF) ([8]; 8 mg, 1 min): -17%
Mean % Change in Heart Rate (HR) ([8]; 8 mg, 1 min): -7%
Mean % Change in Contractile Force (CF) ([8]; 8 mg, 2 min): +2%
Mean % Change in Heart Rate (HR) ([8]; 8 mg, 2 min): -6%
Incidence of Ventricular Fibrillation (VF) ([8]; 16 mg): 2/6
Mean % Change in Contractile Force (CF) ([8]; 16 mg, 0-15 S): -92%
Mean % Change in Heart Rate (HR) ([8]; 16 mg, 0-15 S): -31%
Mean % Change in Contractile Force (CF) ([8]; 16 mg, 15-30 S): -61%
Mean % Change in Heart Rate (HR) ([8]; 16 mg, 15-30 S): -14%
Mean % Change in Contractile Force (CF) ([8]; 16 mg, 1 min): -37%
Mean % Change in Heart Rate (HR) ([8]; 16 mg, 1 min): -14%
Mean % Change in Contractile Force (CF) ([8]; 16 mg, 2 min): -1%
Mean % Change in Heart Rate (HR) ([8]; 16 mg, 2 min): -11%
Premature ventricular contractions ([8]; 16 mg, hearts which did not fibrillate): two of the four hearts which did not fibrillate had premature ventricular contractions
Incidence of Ventricular Fibrillation (VF) ([8]; 32 mg): 5/6
Mean % Change in Contractile Force (CF) [8, 9]: -100%
Mean % Change in Heart Rate (HR) [8, 9]: -100%
Mean % Change in Contractile Force (CF) ([8]; 32 mg, 15-30 S): -64%
Mean % Change in Heart Rate (HR) ([8]; 32 mg, 15-30 S): -17%
Mean % Change in Contractile Force (CF) ([8]; 32 mg, 1 min): -33%
Mean % Change in Heart Rate (HR) ([8]; 32 mg, 1 min): -17%
Mean % Change in Contractile Force (CF) ([8]; 32 mg, 2 min): +2%
Mean % Change in Heart Rate (HR) ([8]; 32 mg, 2 min): -14%
A-V conduction block ([8]; 32 mg, the single heart which failed to fibrillate): complete A-V conduction block with ventricular standstill
Incidence of arrhythmias (in words) ([8]; 4-32 mg intracoronary): dose-related incidence of arrhythmias
Period of maximal CF and HR effects after injection ([8]; 4-32 mg intracoronary): 0 to 15 s
Arrhythmias at the lower two doses ([8]; 4 and 8 mg): No arrhythmias were observed
Time to return to control or stabilization at new baseline ([8]; CF and HR): two
PR and QRS intervals ([8]; ECG): dose-related increases in PR and QRS intervals
Reversion of VF ([8]; exception: a 32 mg dose): did revert spontaneously to normal sinus rhythm in each instance but one
